Measurements published in paper PMC6234871 (mBio, 2018).

Assays:
[1] = target: T1, PfHAD2 (HAD2, 6×His-HAD2) (Plasmodium falciparum, UniProt Q8I5F4); assay: EnzChek phosphate release assay (MESG/PNP coupled); assay type: biochemical; details: 5 mM substrate, 730 nM enzyme, 20 mM MgCl2, 50 mM Tris-HCl pH 8.0; normalised to D26A mutant
T1 construct: gene PF3D7_1226300; native mass about 33 kDa

[2] = target: T1, PfHAD2 (HAD2, 6×His-HAD2); assay: continuous absorbance at […] nm; assay type: biochemical; details: 10 mM pNPP, 1.2 µM enzyme, 5 mM MgCl2, 50 mM Tris-HCl pH 7.5, 37°C

Row | Compound | EnzChek phosphate release assay (MESG/PNP coupled) [1] | continuous absorbance at 405 nm [2]
1 | O=P(O)(O)OC(CO)CO [glycerol 2-phosphate] | PfHAD2 is a phosphatase with activity against small phosphosubstrates, such as glc2P | –
2 | O=[N+]([O-])c1ccc(OP(=O)(O)O)cc1 [para-nitrophenyl phosphate] | – | confirmed the phosphatase activity of recombinant PfHAD2 using para-nitrophenyl phosphate (pNPP)
